The results in this text go back to US10369185B2, “Methods and compositions for enhancement of ability to concentrate” (KYOWA HAKKO BIO CO., LTD., priority 2014, dated 2019).

In assay [1] the test system is male runners. Description: Dynavision D2 visual, motor and physical reaction time to a visual stimulus. In kind it is in vivo, human. As to conditions: between groups. Here is the method: The testing protocol is depicted in FIG. 1. Data collection occurred on four separate occasions. Each session required participants to perform a 60-min run at 75% of their previously measured VO2max. Following this run, all participants performed a run at 90% of their VO2max until volitional exhaustion. All participants performed their first trial (DHY) without any rehydration. During this session the total weight lost during the trial was determined. The fluid loss that occurred during this session was then used to determine the participant's swear rate (L·hr^−1). To continue in the study, participant's sweat rate was or exceeded 1.3 L·hr^−1. […] The first assessment measured the participant's visual, motor, and physical reaction time to a stimulus with the dominant hand. […] Visual reaction time was determined as the amount of time from identifying the stimulus and initiating a reaction by leaving the home button. Motor response time was determined by the time (measured in 1/100's of a second) it took to physically strike the stimulus following the initial visual reaction and was measured as the amount of time from the hand leaving the home button and striking the stimulus. Physical reaction time was determined by the total elapsed time from the introduction of the target stimulus to the physical completion of the task (returning to the home button after striking the stimulus). […]

Assay [2] has as its system male runners. Description: Run at 90% VO2max until volitional exhaustion. In kind it is in vivo, human. The following applies: LD and HD compared to DHY. Here is the method:
The testing protocol is depicted in FIG. 1. Data collection occurred on four separate occasions. Each session required participants to perform a 60-min run at 75% of their previously measured VO2max. Following this run, all participants performed a run at 90% of their VO2max until volitional exhaustion. All participants performed their first trial (DHY) without any rehydration. During this session the total weight lost during the trial was determined. The fluid loss that occurred during this session was then used to determine the participant's swear rate (L·hr^−1). To continue in the study, participant's sweat rate was or exceeded 1.3 L·hr^−1. During the next three trails participants were provided 250 ml of fluid every 15 minutes in equal amounts. During one of the trials participants consumed only a flavored sports drink (ELECT only), while during the other trials participants consumed the alanine-glutamine supplement (Sustamine™) mixed in the same flavored sports drink at either a low (LD: 300 mg per 500 ml) or high (HD: 1 g per 500 ml) dose.

Each structure is given as a SMILES string. “Also recorded” adds a separate entry of the source. Peptide text beside a SMILES is read from it.

Take `C[C@H](N)C(=O)N[C@@H](CCC(N)=O)C(=O)O` [L-Alanyl-L-Glutamine] (H-Ala-Gln-OH): the “change in visual, motor and physical reaction times to a visual stimulus” value with male runners [1] is given as “No significant differences were noted between groups”. Besides, the “run times at 90% VO2max (time to exhaustion)” value with male runners [2] was “significantly longer at LD and HD compared to DHY; also recorded: improved time to exhaustion compared to when subjects were dehydrated; also recorded: can enhance time to exhaustion”.
